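These data come from cells grown in 96-well plates and exposed to compound for 48 hours at five concentrations. The concentration for full growth arrest is given as TGI.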
Columns and labels:
Test in all cases: NCI tumour cell line growth inhibition, 48 h
[1] = system: SNB-75 CNS
[2] = system: SF-295 CNS
[3] = system: UACC-257 melanoma
[4] = system: LXFL 529 NSCLC
[5] = system: MOLT-4 leukemia
[6] = system: UO-31 renal
[7] = system: TK-10 renal
[8] = system: HCT-15 colon
[9] = system: HT29 colon
[10] = system: MALME-3M melanoma
[11] = system: SK-MEL-28 melanoma
[12] = system: SF-539 CNS
[13] = system: HCC-2998 colon
[14] = system: XF 498 CNS
[15] = system: U251 CNS
[16] = system: A498 renal
[17] = system: RXF 393 renal
[18] = system: SR leukemia
[19] = system: ACHN renal
[20] = system: SNB-78 CNS
[21] = system: HOP-62 NSCLC
[22] = system: SK-MEL-2 melanoma
[23] = system: NCI-H226 lung
[24] = system: SF-268 CNS
[25] = system: A549 NSCLC
[26] = system: 786-0 renal
[27] = system: RPMI-8226 leukemia
[28] = system: CCRF-CEM leukemia
[29] = system: DLD-1 colon
[30] = system: IGROV1 ovarian
[31] = system: NCI-H23 lung
[32] = system: K-562 leukemia
[33] = system: M19-MEL melanoma
[34] = system: HOP-18 NSCLC
[35] = system: LOX IMVI melanoma
[36] = system: DMS 273 small cell lung
[37] = system: UACC-62 melanoma
[38] = system: HL-60(TB) leukemia
[39] = system: COLO 205 colon
[40] = system: OVCAR-5 ovarian
[41] = system: HOP-92 NSCLC
[42] = system: M14 melanoma
[43] = system: SK-OV-3 ovarian
[44] = system: SK-MEL-5 melanoma
[45] = system: KM12 colon
[46] = system: HCT-116 colon
[47] = system: KM20L2 colon
[48] = system: CAKI-1 renal
[49] = system: OVCAR-3 ovarian
[50] = system: DMS 114 small cell lung
[51] = system: EKVX NSCLC
[52] = system: OVCAR-8 ovarian
[53] = system: OVCAR-4 ovarian
[54] = system: SW-620 colon
[55] = system: SN12C renal
[56] = system: NCI-H460 lung

Measured: TGI

COc1ccc(/C=N/NS(=O)(=O)c2ccccc2)cc1
> 100 µM: all assays above
